Source: patent US20240166651A1, “HETEROCYCLIC DERIVATIVES AS JANUS KINASE INHIBITORS” (CHIESI FARMACEUTICI S.P.A., priority 2021, published 2024)
pIC50: −log10 of the molar value.

Columns and labels:
JAK1 kinase = JAK1 kinase (Homo sapiens (Human), UniProt P23458); assay: Biochemical Potency JAK1 (TR-FRET LANCE Ultra kinase assay); conditions: ATP corresponding to Km
From the text: The objective of this study was to assess the activity of novel JAK inhibitors measuring the capability of compounds to inhibit JAK1 kinase activity in a biochemical time-resolved fluorescence resonance energy transfer (TR-FRET) LANCE assay. In
LANCE Ultra kinase assay in the presence of JAK1 kinase and ATP (corresponding to Km), the ULight peptide substrate (LANCE Ulight-JAK-1 (Tyr1023) Peptide, Perkin Elmer, TRF0121) was phosphorylated. It was then captured by a Eu-anti-phospho-substrate antibody (LANCE Eu-W1024 Anti-phosphotyrosine (PT66), Perkin Elmer, AD0069), which brought the Eu-chelate donor and ULight acceptor dyes into close proximity. Upon excitation at 320 nm, the Eu-chelate transfers its energy to the ULight dye, resulting in a fluorescent light emission at 665 nm. Inhibitors were tested at 11 consecutive 5-fold dilutions starting from 30 μM (30 μM—3 pM) in duplicate. Calculation of IC50 data, curves and QC analysis were made using Excel tools and GraphPadPrism software. QC criteria parameters: Z′≥0.5, Hill Slope range 0.5 to 5, S:B>2.

[1] = system: IL-2 induced phosphorylation of STAT5 (JAK1/JAK3 activity) in human PBMCs; assay: Cell Based assay PBMC (IL-2 stimulated pSTAT5); conditions: 0.5 h, rh IL-2, 30 min incubation, pSTAT5 ELISA, data displayed as pIC50
Description: In addition to enzymatic potency, the effects of the inhibitors against JAK1/JAK3 activity in a cellular assay was characterized against IL-2 induced phosphorylation of STATS level in human peripheral blood mononuclear cells (PBMCs).
PBMC have been isolated from human healthy volunteers. Cells were seeded in wells and treated with compounds and rh IL-2. After 30 min incubation cells were lysed and pSTAT5 determined by PathScan phospho-stats (Tyr694) ELISA (Cell signaling). Inhibitors were tested at 11 consecutive 5-fold dilutions starting from 30 μM (30 μM—3 pM) in duplicate. Calculation of IC50 data, curves and QC analysis were made using
Excel tools and GraphPadPrism software. QC criteria parameters: Z′≥0.35, Hill Slope range 0.5 to 5, S:B >2.

Chain of JAK1 kinase (P23458 whole entry): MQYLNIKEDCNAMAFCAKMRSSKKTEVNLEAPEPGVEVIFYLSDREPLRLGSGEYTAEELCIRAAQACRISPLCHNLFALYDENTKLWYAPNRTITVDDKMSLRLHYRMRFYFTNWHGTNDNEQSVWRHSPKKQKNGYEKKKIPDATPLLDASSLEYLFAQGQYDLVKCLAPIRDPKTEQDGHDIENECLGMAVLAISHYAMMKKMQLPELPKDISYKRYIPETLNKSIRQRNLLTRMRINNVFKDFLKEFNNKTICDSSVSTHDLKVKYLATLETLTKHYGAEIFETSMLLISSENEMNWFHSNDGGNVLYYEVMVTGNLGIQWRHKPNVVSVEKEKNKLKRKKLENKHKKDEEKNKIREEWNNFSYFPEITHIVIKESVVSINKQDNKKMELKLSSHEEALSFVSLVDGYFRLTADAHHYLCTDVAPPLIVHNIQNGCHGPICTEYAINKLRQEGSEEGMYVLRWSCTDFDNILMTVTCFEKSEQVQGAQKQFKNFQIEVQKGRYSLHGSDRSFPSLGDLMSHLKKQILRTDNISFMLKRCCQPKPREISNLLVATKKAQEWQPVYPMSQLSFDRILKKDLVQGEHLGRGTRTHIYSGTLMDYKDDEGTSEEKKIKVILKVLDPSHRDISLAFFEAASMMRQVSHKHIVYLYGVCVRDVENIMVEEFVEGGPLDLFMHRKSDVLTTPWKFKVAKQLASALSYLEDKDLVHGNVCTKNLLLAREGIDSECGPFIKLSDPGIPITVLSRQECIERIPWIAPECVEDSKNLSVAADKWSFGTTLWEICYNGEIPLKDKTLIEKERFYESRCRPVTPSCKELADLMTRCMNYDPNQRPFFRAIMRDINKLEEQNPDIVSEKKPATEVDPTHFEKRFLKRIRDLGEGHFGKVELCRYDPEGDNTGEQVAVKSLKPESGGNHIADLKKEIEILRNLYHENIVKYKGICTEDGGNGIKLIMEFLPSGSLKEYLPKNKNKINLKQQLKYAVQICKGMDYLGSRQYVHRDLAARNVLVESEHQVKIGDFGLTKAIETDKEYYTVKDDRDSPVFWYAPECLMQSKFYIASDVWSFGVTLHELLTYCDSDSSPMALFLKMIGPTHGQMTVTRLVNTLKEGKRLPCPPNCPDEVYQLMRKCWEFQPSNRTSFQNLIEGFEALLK

SMILES | Biochemical Potency JAK 1 (pIC50) (JAK1 kinase) | pIC50 [1]
CN(c1ncnc2[nH]ccc12)C1CCN(c2ccc(C#N)nc2)C1 (stereo not drawn) [Example 2, 5-(3-(methyl(7H-pyrrolo[2,3-d]pyrimidin-4-yl)amino)pyrrolidin-1-yl)picolinonitrile] | 7.9 | 6.60
CN(c1ncnc2[nH]ccc12)[C@@H]1CCN(c2ccc(C(=O)Nc3nccs3)cn2)C1 [Example 3, (R)-6-(3-(methyl(7H-pyrrolo[2,3-d]pyrimidin-4-yl)amino)pyrrolidin-1-yl)-N-(thiazol-2-yl)nicotinamide] | 7.7 | 6.30
CN(c1ncnc2[nH]ccc12)[C@@H]1CCN(c2ccc(C#N)c(F)c2)C1 [Example 1, (R)-2-fluoro-4-(3-(methyl(7H-pyrrolo[2,3-d]pyrimidin-4-yl)amino)pyrrolidin-1-yl)benzonitrile] | 8.6 | 7.30
CN(c1ncnc2[nH]ccc12)[C@@H]1CCN(c2cc(F)ccc2C#N)C1 [Example 9, (R)-4-fluoro-2-(3-(methyl(7H-pyrrolo[2,3-d]pyrimidin-4-yl)amino)pyrrolidin-1-yl)benzonitrile] | 7.6 | 6.40
CN(c1ncnc2[nH]ccc12)[C@@H]1CCN(c2cnc(C#N)nc2)C1 [Example 10, (R)-5-(3-(methyl(7H-pyrrolo[2,3-d]pyrimidin-4-yl)amino)pyrrolidin-1-yl)pyrimidine-2-carbonitrile] | 7.9 | 6.70
CCOC(=O)c1cnc2ccsc2c1NC1CCN(c2ccc(C#N)c(F)c2)C1 (stereo not drawn) [Example 7, ethyl 7-((1-(4-cyano-3-fluorophenyl)pyrrolidin-3-yl)amino)thieno[3,2-b]pyridine-6-carboxylate] | 6 | 5.60
N#Cc1ccc(N2CCC(Nc3c(C(=O)O)cnc4ccsc34)C2)cc1F (stereo not drawn) [Example 8, 7-((1-(4-cyano-3-fluorophenyl)pyrrolidin-3-yl)amino)thieno[3,2-b]pyridine-6-carboxylic acid] | 5.3 | 4.50
CN(c1ncnc2[nH]ccc12)C1CCN(C(C(=O)O)c2ccc(Cl)cc2F)C1 (stereo not drawn) [Example 6, 2-(4-chloro-2-fluorophenyl)-2-(3-(methyl(7H-pyrrolo[2,3-d]pyrimidin-4-yl)amino)pyrrolidin-1-yl)acetic acid] | 5.3 | 
COC(=O)C(c1ccc(Cl)cc1F)N1CCC(N(C)c2ncnc3[nH]ccc23)C1 (stereo not drawn) [Example 5, methyl 2-(4-chloro-2-fluorophenyl)-2-(3-(methyl(7H-pyrrolo[2,3-d]pyrimidin-4-yl)amino)pyrrolidin-1-yl)acetate] | 7.6 | 
N#Cc1ccc(N2CCC(Nc3c(C(N)=O)cnc4ccsc34)C2)cc1F (stereo not drawn) [Example 4, 7-((1-(4-cyano-3-fluorophenyl)pyrrolidin-3-yl)amino)thieno[3,2-b]pyridine-6-carboxamide] | 7 | 5.50
